Measured values taken from PMC12195740, “Discovery of Novel Imidazothiazole-Based Hydroxamic Acid Derivatives as Potent Indoleamine 2,3-Dioxygenase 1 and Histone Deacetylase 6 Dual Inhibitors” (Molecules, 2025).

Key:
[1] = Cell viability assay, HK2 normal renal cells; conditions: human
Source text: On the basis of the IDO1 and HDAC activities, we explored the proliferation inhibitory activities of the selected compounds against four solid tumor cells lines.

[2] = tested on: HCT-116 cells; assay: Cell viability (MTT) assay, HCT-116; conditions: Homo sapiens, HCT-116, 48 h, read-out: Antiproliferative IC50, HCT-116
Protocol: Section S 1.3 Cell viability assays
(§1) Cell Bank at the Chinese Academy of Sciences.
(§2) DMEM and FBS were obtained from Gibco-Thermo (BRL Co. Ltd., USA).
(§3) another 48 h. The cells were stained with 10 μl of MTT at incubator for approximately 4 h. The medium was discarded and replaced by 100 mL DMSO. The O.D. value was read at 570/630 nm with a spectrophotometer.

[3] = tested on: MCF-7 cells; assay: Cell viability (MTT) assay, MCF-7; conditions: Homo sapiens, MCF7, 48 h, read-out: Antiproliferative IC50, MCF-7
Protocol: Section S 1.3 Cell viability assays
as §1, §2, §3

[4] = molecular target: T1, rhIDO1 (Homo sapiens, UniProt P14902); assay: IDO1 inhibition assay; format: biochemical; conditions: means ± S.D. of three independent experiments
T1 construct: purchased
Protocol: Section S1. Biological assays […]
Section S 1.2 IDO1 inhibition assays
IDO1 inhibition assays were carried out according to the manufacturers’ procedures, as described previously. The standard assay mixture (100 μL) contained 50 mM of potassium phosphate buffer (pH = 6.5), 10 mM ascorbate, 10 μM methylene blue, 100 μg/mL catalase, 1 mM L-tryptophan and 10 μg/mL of rhIDO1. The plate was incubated at 37 °C in a dark environment, and reactions were terminated after 60 min by the addition of 50 μL of fluorogenic developer solution and further incubated at 45 °C in dark for 3 h. Then, the plate was allowed to cool to room temperature for at least 1 h. After centrifugation at 1500g for 5 min at 20 °C, the fluorescence […]
M1000 Pro, Tecan US, Morrisville, NC) in an end-point mode. […]

[5] = tested on: SW480 cells; assay: Cell viability (MTT) assay, SW480; conditions: Homo sapiens, SW480, 48 h, read-out: Antiproliferative IC50, SW480
Protocol: Section S 1.3 Cell viability assays
as §1, §2, §3

[6] = tested on: MDA-MB-231 cells; assay: Cell viability (MTT) assay, MDA-MB-231; conditions: Homo sapiens, MDA-MB-231, 48 h, read-out: Antiproliferative IC50, MDA-MB-231
Protocol: Section S 1.3 Cell viability assays
as §1, §2, §3

[7] = molecular target: T2, HDAC11 (Homo sapiens, UniProt Q96DB2); assay: HDAC isoform selectivity assay, HDAC11; format: biochemical; conditions: read-out: HDAC11 % inhibition rate at 10 μM
T2 sequence (Q96DB2 1-347): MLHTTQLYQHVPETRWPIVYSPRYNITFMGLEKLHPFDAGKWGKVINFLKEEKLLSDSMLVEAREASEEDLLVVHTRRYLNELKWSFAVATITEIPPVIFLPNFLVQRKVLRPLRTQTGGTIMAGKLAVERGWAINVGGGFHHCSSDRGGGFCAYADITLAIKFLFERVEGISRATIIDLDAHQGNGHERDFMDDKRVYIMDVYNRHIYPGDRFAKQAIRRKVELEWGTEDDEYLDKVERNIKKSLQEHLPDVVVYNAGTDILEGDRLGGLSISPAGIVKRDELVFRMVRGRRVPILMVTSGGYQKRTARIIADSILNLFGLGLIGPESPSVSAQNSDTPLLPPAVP

[8] = molecular target: T3, HDAC6 human recombinant enzyme (Homo sapiens, UniProt Q9UBN7); assay: HDAC6 enzyme inhibitory activity assay; format: biochemical
T3 sequence (Q9UBN7 1-1215): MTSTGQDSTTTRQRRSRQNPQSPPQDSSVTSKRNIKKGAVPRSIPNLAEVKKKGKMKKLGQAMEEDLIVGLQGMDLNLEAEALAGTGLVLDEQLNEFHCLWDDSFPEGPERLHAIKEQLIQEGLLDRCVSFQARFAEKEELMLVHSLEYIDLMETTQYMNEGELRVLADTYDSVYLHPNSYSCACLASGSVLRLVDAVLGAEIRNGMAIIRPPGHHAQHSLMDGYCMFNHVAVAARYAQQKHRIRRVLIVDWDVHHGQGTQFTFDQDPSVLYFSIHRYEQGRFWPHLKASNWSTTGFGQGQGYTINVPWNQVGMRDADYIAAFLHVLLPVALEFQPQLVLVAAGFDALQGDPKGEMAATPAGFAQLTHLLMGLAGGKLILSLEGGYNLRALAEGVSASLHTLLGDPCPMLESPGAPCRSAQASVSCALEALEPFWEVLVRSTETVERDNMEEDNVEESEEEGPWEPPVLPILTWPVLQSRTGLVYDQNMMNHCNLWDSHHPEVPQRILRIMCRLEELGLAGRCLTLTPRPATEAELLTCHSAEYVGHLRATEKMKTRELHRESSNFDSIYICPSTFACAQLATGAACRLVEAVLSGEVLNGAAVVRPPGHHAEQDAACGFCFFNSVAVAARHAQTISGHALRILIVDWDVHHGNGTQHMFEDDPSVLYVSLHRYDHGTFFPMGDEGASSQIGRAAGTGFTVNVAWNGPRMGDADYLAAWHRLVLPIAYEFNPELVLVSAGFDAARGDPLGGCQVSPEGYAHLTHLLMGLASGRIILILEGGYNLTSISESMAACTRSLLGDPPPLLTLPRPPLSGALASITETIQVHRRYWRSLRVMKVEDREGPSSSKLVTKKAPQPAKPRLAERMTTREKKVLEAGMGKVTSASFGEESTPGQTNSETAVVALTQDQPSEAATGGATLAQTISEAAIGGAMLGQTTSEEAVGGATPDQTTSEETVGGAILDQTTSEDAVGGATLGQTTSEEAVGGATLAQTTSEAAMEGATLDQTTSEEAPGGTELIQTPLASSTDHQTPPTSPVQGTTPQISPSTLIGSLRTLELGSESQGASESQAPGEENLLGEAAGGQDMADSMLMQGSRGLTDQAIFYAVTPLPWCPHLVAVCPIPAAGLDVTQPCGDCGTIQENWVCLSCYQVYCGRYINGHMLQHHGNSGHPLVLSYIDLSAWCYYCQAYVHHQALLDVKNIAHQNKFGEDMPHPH
Protocol: Section S1. Biological assays
Section S 1.1. HDAC6 enzyme inhibitory activity assay
Preparation of Master Mix. Trichostatin A in DMSO, Fluorogenic HDAC substrate 3, and HDAC6 human recombinant enzyme were diluted to 20 μM, 200 μM, and 7 ng/uL, respectively, using HDAC Assay Buffer.BSA was dissolved in 1 mL of distilled water to make a BSA solution at a concentration of 1 mg/mL. A certain amount of Fluorogenic HDAC substrate 3, BSA and HDAC Assay Buffer were mixed well to make a master mix, and 40 μL of the master mix was added to each well of a 96-well plate. In the drug administration group, 5 μL of Trichostatin A in DMSO and HDAC6 human recombinant enzyme were added to each well. 5 μL of HDAC Assay Buffer and HDAC6 human recombinant enzyme were added to each well of the blank group, and incubated for 30 min at 37 °C. Finally, 50 μL of undiluted HDAC substrate 3, BSA and HDAC Assay Buffer were added to each well. 50 μL of 2x HDAC Developer was added to each well and incubated at room temperature for 15 min. The samples were read in an enzyme marker with an excitation wavelength in the range of 350-380 nm and an emission light in the range of 440-460 nm.
The values of fluorescence intensities were read and the inhibition rate and IC50 were calculated. […]

[9] = molecular target: HDAC4 (Homo sapiens, UniProt P56524); assay: HDAC isoform selectivity assay, HDAC4; format: biochemical; conditions: read-out: HDAC4 % inhibition rate at 10 μM
[10] = molecular target: HDAC1 (Homo sapiens, UniProt Q13547); assay: HDAC isoform selectivity assay, HDAC1; format: biochemical
[11] = design: method as in PMID 32815366; conditions: cell line not given; cited from earlier work

T1 sequence (P14902 whole entry): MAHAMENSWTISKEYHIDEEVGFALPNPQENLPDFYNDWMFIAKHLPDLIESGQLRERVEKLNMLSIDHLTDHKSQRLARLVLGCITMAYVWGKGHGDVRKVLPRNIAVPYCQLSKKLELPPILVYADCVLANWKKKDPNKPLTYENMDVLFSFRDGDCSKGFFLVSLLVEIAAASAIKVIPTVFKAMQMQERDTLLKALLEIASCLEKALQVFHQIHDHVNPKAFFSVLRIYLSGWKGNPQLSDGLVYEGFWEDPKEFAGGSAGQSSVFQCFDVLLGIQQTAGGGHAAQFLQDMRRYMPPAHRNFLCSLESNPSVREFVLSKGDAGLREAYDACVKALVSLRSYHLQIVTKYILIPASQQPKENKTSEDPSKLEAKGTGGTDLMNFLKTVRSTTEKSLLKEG
Sequence of HDAC4 (P56524 whole entry, species assumed, canonical isoform): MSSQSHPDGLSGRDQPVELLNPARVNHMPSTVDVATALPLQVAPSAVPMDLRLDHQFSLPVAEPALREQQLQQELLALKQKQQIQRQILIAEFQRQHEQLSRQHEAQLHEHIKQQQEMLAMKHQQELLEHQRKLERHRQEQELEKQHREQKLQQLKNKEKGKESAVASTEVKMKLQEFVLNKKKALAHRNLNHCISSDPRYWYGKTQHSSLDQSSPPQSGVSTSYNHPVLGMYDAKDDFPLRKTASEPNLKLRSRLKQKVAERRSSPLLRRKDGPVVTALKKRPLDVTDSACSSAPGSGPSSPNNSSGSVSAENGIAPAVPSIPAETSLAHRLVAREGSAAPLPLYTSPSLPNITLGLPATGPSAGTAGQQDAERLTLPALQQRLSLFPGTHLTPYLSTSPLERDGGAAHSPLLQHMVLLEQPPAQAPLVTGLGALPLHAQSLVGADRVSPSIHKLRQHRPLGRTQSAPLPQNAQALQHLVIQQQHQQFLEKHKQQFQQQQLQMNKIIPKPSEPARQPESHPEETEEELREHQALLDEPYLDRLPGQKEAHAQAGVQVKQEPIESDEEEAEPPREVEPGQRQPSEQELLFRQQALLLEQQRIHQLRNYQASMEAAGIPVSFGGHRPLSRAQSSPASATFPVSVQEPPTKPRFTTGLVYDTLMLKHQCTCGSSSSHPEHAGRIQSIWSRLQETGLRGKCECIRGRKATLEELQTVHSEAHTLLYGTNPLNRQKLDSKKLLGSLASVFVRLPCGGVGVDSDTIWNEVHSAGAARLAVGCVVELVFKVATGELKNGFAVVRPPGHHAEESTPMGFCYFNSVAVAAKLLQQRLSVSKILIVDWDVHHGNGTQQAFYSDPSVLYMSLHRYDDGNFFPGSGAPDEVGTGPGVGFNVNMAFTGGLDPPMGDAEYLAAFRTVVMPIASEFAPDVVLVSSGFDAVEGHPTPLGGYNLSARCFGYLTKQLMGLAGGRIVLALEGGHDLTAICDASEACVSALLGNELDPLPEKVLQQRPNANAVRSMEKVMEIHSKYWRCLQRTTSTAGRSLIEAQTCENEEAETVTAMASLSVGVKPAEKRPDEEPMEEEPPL
Sequence of HDAC1 (Q13547 whole entry, species assumed, canonical isoform): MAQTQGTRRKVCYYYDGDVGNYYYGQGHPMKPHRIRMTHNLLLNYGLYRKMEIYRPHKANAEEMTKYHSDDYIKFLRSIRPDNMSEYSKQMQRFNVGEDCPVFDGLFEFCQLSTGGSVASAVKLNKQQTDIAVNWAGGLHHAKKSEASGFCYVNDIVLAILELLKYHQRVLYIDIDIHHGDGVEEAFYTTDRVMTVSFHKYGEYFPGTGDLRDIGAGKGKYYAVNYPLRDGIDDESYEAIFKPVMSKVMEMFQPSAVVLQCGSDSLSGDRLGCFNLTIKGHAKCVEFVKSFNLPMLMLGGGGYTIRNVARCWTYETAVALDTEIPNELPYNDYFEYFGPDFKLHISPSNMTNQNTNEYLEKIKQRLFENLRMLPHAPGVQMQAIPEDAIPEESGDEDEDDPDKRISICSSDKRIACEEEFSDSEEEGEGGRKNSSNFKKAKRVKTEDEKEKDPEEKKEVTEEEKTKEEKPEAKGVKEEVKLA

IC50 [2] [µM] | IC50 [3] [µM] | IC50 [4] [µM] | IC50 [5] [µM] | IC50 [6] [µM] | inhibition at 10 µM [7] [%] | IC50 [8] [µM] | Selectivity Index (SI) = HDAC1 IC50 value/HDAC6 IC50 value ([8]; HDAC1/HDAC6) | inhibition at 1 µM ([8]; read-out: HDAC6 Inhibition Rate at 1 μM) [%] | inhibition at 10 µM [9] [%] | IC50 [10] [µM] | Compound | IC50 [1] [µM] | concentration at which cytotoxicity begins [11] [µM]
> 80 | > 80 | 6.52 ± 0.45 | > 80 | > 80 | – | – | – | – | – | – | O=C(O)c1cnc2scc(-c3ccc(Br)cc3)n12 [5a] | > 80 | –
> 80 | > 80 | 0.16 ± 0.03 | > 80 | > 80 | 29.8 | 0.391 | 3.04 | 70.7 | 9.68 | 1.19 | Cc1ccc(-c2csc3ncc(C(=O)Nc4ccc(NCCCCCCC(=O)NO)cc4)n23)cc1 [Compound 10k, N-{4-[(7-(hydroxyamino)-7-oxoheptyl)amino]phenyl}-3-(p-tolyl)imidazo[2,1-b]thiazole-5-carboxamide] | – | –
– | – | – | – | – | – | – | – | – | – | – | CCCCN(Cc1ccc(C(=O)NO)cc1)C(=O)Nc1ccccc1 [NextA] | – | 10
– | – | – | – | – | – | – | – | – | – | – | NCc1ccc(NC(=O)N(CCCCO)Cc2ccc(C(=O)NO)cc2)cc1 [Suprastat] | – | > 25
